Here are results for five compounds from US5030715A, “Novel aminopimelic acids” (Roussel Uclaf, priority 1987, dated 1991).

Experiment [1] has as its system Salmonella typhimurium MZ11. Kind of experiment: Antibacterial activity in vitro, agar diffusion in Davis Mingioli medium. The class given is cell-based. Particulars: Salmonella enterica, product at 25 mg/l, 24 hours at 37° C., read-out: inhibition zones observed (diameter in mm). The method, then:
(§1) The antibacterial activity of the products was determined by the method of diffusion in a Davis Mingioli medium with 1% of agar added to it. The agars used were poured into Petri dishes at 48° C., after inoculating with […] with the bacterial strain under test. The inocula came from a culture made 24 hours earlier in a Davis Mingioli broth. After the agars had hardened, the aqueous solutions of the products being studied were introduced into wells (9 mm) hollowed in the medium with a punch. The inhibition zones observed (diameter in mm) were measured after incubation for 24 hours at 37° C.
(In agar diffusion tests the substance spreads into inoculated agar from a disc or well.)

Experiment [2] deals with Enterobacter cloacae 1321E. The experiment is described as above. The class given is cell-based. Particulars: product at 25 mg/l, 24 hours at 37° C., read-out: inhibition zones observed (diameter in mm). The method, then:
as §1

In experiment [3] the test system is human monocytes. The experiment is described as follows: Stimulation of monocyte cells: Interleukine-1 (IL-1) test on culture supernatants. It counts as cell-based. Particulars: for direct effect on human monocytes, production of an IL-1 activity in the culture supernatants: with 5 g of product. The method, then: (§2) The mononucleus cells of the circulating blood of normal donors were separated according to the standard technique described by Boyum using a Ficoll gradient. After washing, the mononuclear cells were incubated at 37° C. for one hour at the rate of 5.10^6 monocytes (NSE^+ cells) per ml of culture medium using 5 ml per culture flask. The culture medium used in this experiment was made up of RPMI 1640 with the addition of antibiotics and Hepes buffer. After one hour, the non-adherent cells were removed by washing the flasks with medium previously heated to 37° C. and the adherent cells composed mostly of monocytes (>90%) were put back in culture in complete RPMI medium without serum in the presence of various quantities of products under test, which had previously been put in solution in a buffer (Dulbecco) without Ca^2+ or Mg^2+. The culture was continued for 24 or 48 hours and the supernatants of the cells were then removed, centrifuged, separated into equal lots and held either at -80° C. or at -20° C. The supernatants of the culture were replaced in the flasks by the same amount of apyrogenous distilled water to dissolve the cells. The lysate was recovered, separated into equal lots and also kept at -20° C.
This test was described for the first time by Gery et al in 1972 [Gery et al 1972. Potentiation of the T lymphocyte response to mitogens. II. The cellular source of potentiating mediator (s) J. Exp. Med., 136-143]. It is based on the co-mitogen action of IL-1 in the presence of an antigen (mimicked by phytohemaglutinine in the test) on the thymocytes of mice. 1.5×10^6 thymocytes of mice C3H/HeJ (from the C.S.E.A.L. of Orleans) were put in culture for three days in the presence of various dilutions of supernatants and of cell lysates which may contain IL-1 activity and of PHA-P Wellcome (1 ug/ml) in culture plates with 96 flat bottomed wells, in a final volume of 200 ul of medium composed of RPMI 1640 containing in addition to antibiotics (penicillin 1 U/ml - streptomycin 1000 U/ml) of Hepes buffer, 1 mM of glutamine, 2 mM 5% of calf serum and […] of 2-mercapto ethanol. After 68 hours of culture, 1 μCi of tritiated thymidine was added to each well (^3 H-methyl thymidine, CEA Saclay, TMM79A specific activity 1 Ci/mM=37 GBq/mM) and the radioactivity incorporated by the cells was evaluated after the cultures had been filtered on Skatron type semi-automatic collecting apparatus and the filters had been counted in a liquid scintillation counter (Beckman). The results were expressed by the difference between the impulses per minute incorporated by the cultures in the presence of supernatants and the impulses per minute incorporated by the control cultures.

Experiment [4] deals with human monocytes. Kind of experiment: Stimulation of monocyte cells: Tumor Necrosis Factor (TNF) test on culture supernatants. The class given is cell-based. Particulars: for direct effect on human monocytes, production of a TNF activity in the culture supernatants: with 5 g of product. The method, then: as §2
The TNF activity is shown by the toxicity of this factor on the L-929 target cells (sub-clone alpha) and the technique was sensitized by adding D actinomycin in the test. The L cells were distributed at a rate of 2×10^4 cells per well of a flat-bottomed microplate in 100 μl of RPMI 1640 medium enriched with 5% of calf serum, glutamine, Hepes buffer and antibiotics. After 24 hours, various dilutions of the supernatants under test were added in a volume of 100 μl, as well as a dose of D actinomycin of 1 μg/ml. After 24 hours of culture, the quantity of undissolved cells was evaluated by coloring the plates with crystal violet and measuring the optical density of the different wells on a multiscan reader. RESULTS: The product of Example 9 stimulated the monocytes and their production of IL-1 and TNF. Furthermore, there was synergy between the products and the gamma Interferon.

The next experiment relates to Escherichia Coli 078. The experiment is described as follows: Antibacterial activity in vitro, agar diffusion in Davis Mingioli medium. It counts as cell-based. Particulars: COLI078, product at 25 mg/l, 24 hours at 37° C., read-out: inhibition zones observed (diameter in mm). The method, then: as §1
A further experiment relates to Providencia sp. DU48. The description is as above. It counts as cell-based. Particulars: product at 25 mg/l, 24 hours at 37° C., read-out: inhibition zones observed (diameter in mm). The method, then:
as §1

Another experiment concerns Strain IP 52 145. The experiment is described as follows: Antibacterial activity in vivo, protection of infected mice. Also noted: species or system Swiss female mice. Particulars: 5 mg/kg intramuscular 24 hours before intravenous infection with strain IP 52 145. The method, then:
Swiss female mice weighing from 18 to 20 g (Charles River Cobs noninbred CDl) were used for this experiment with each group comprising 20 animals. The various products were put in solution in apyrogenous physiological serum to obtain concentrations of 1-10-100 mcg/mouse or: 50-500-5000 mcg/kg.
The lyophilized strain was re-hydrated with a few drops of soja trypcase broth (BioMerieux) and a tube of 10 ml of soja trypcase broth was inoculated with the suspension obtained and cultivated for 18 hours in an incubator at 37° C. Tubes of preserving agar (Pasteur) were inoculated with this culture by central stabing. After 18 hours of culture in an incubator at 37° C., the tubes were kept at 22° C.
A tube of soja trypcase broth was inoculated from a preserving agar and cultivated for 18 hours in an incubator at 37° C. Inclined soja trypcase agars were inoculated from this culture. […] The germ concentration was evaluated by counting with a Coulter Counter. […] The quantity of revivable germs injected was checked by spreading on Petri dishes containing trypcase agar.
Administration was done with an intramuscular injection in a volume of 0.05 ml/mouse 24 hours before infection. […] Where a clear increase in survival could not be detected after 21 days of observation, an average survival time (AST) was calculated for each group. […]

The mark [5] stands for this setting: human blood monocytes, culture 24 or 48 hours.
[6] abbreviates: in the presence of gamma Interferon (10^3 U/ml; CHU--IFN--g).

With `C[C@H](N)C(=O)NC(CC=CCC(=O)O)C(=O)O` (stereo partly drawn) [Example 6, 6-(L-alanylamino)-3-heptenedioic acid], the zone of inhibition at 25 µg/mL in experiment [1] stood at 24 mm; in experiment [2] it was 10 mm.

Regarding `NC(CC=CCC(=O)O)C(=O)O` (centres unmarked) [Example 5, 6-amino-3-heptenedioic acid], in the experiment with human monocytes [3], the “direct effect on human monocytes, production of an IL-1 activity in the culture supernatants” value is given as “showed a direct effect”. In the experiment with human monocytes [4], the “direct effect on human monocytes, production of a TNF activity in the culture supernatants” value was “showed a direct effect”.

`C[C@H](N)C(=O)NC(C=CCCC(=O)O)C(=O)O` (stereo partly drawn) [Example 13, 2-(L-alanylamino)-3-heptenedioic acid]: the results for the zone of inhibition at 25 µg/mL (in experiment [1]; in the experiment on Escherichia Coli 078; in the experiment on Providencia sp. DU48) were 20 mm, 17.5 mm and 22 mm, respectively.

For the compound `NCCCC[C@H](N)C(=O)NC(CC=CCC(=O)O)C(=O)O` (stereo partly drawn) [Example 9, 6-(L-lysylamino)-3-heptenedioic acid], the “stimulation of the monocytes and their production of IL-1” value in the experiment with human monocytes [3] (setting [5]) is “stimulated”. For the same compound, the “production of monokines (IL-1) in the presence of gamma Interferon” value in the experiment with human monocytes [3] (setting [6]) was “at least increased the production”. The “direct effect on human monocytes, production of an IL-1 activity in the culture supernatants” value with human monocytes [3] is on record as “showed a direct effect”. The “stimulation of the monocytes and their production of TNF” value with human monocytes [4] (setting [5]) was “stimulated”. For the same compound, the “production of monokines (TNF) in the presence of gamma Interferon” value in the experiment with human monocytes [4] (setting [6]) is “at least increased the production”. In addition, the “direct effect on human monocytes, production of a TNF activity in the culture supernatants” value in the experiment with human monocytes [4] is “showed a direct effect”.

For the compound `CCCCCCCCCCCCCCCCCC(=O)N[C@@H](C)C(=O)N[C@H](CCC(=O)NC(CC=CCC(=O)[O-])C(=O)[O-])C(=O)O.[Na+].[Na+]` (some centres unmarked) [Example 8], the “protection, expressed in AST (average survival time) or in survival at the end of 21 days of observation” value with Strain IP 52 145 is “particularly significant protection”.
